Test: Tissue distribution (radiometric analysis of excised organs) after tail vein injection of radiolabeled fatty acid analogs in rats
Assay type: in vivo, Sprague Dawley rats
Conditions: rat
Experimental: Pharmacokinetic characterization was accomplished by radiometric analysis of heart, blood, lung, kidney, liver and other tissue at various times following administration of the 99mTc-labeled fatty acid analogs to rats. […] Six new compounds were evaluated at up to four time points each (5, 15, 60, and 120 minutes) with a minimum of three animals per time point. Non-anesthetized animals were injected with 20-50 μCi in 100 μl via the tail vein and sacrificed at increasing time points post injection. The organs were excised and counted in a gamma counter. Experiments were also conducted to compare the effects of injection media using 10% ethanol, 10% bovine serum albumin and 7% ursodeoxycholic acid on distribution.

Structure (SMILES): CC(CCCCCCCCCCCCc1ccc(I)cc1)CC(=O)O (centres unmarked) [BMIPP]
- Percent injected dose per gram, Blood (15-min post injection, blood): 1.30 ± 0.19 Percent injected dose per gram
- Percent injected dose per gram, Heart (15-min post injection, heart): 4.60 ± 0.63 Percent injected dose per gram
- Percent injected dose per gram, Kidneys (15-min post injection, kidneys): 4.09 ± 0.82 Percent injected dose per gram
- Percent injected dose per gram, Liver (15-min post injection, liver): 2.97 ± 0.56 Percent injected dose per gram
- Percent injected dose per gram, Lung (15-min post injection, lung): 1.83 ± 0.22 Percent injected dose per gram
- heart-to-blood ratio (at 15 minutes): 2.2
- heart-to-blood ratio (at 60 minutes): 1.6
- blood retention / clearance (in words) (blood): slow blood clearance
- heart accumulation / extraction (in words) (heart): high extraction into the heart
- uptake in the heart (heart, at 15 minutes): 3.49 percent per organ
- uptake in the heart (heart, at 60 minutes): 1.62 percent per organ
- less heart uptake with ethanol injection media than with ursodeoxycholic acid (heart, 10% ethanol versus 7% ursodeoxycholic acid injection media): ~75%
- liver activity (liver, end of the 45 minute period (60 minutes)): 7.2 percent per organ
- liver activity (liver, start of the 45 minute period (15 minutes)): 19.7 percent per organ

Source: patent US7556794B2, “Pendant fatty acid imaging agents” (Molecular Insight Pharmaceuticals, Inc., priority 2002, dated 2009)
